According to PMC11648915, “Identification and development of TRPM4 antagonists to counteract neuronal excitotoxicity” (iScience, 2024):
Read-outs that look alike come from different tables or passages of the source.

How the values were obtained:
[1] = tested on: hsTRPM4 L907A, S924A and L907A/S924A mutants; assay: Whole-cell patch clamp of wild-type and binding-site mutant hsTRPM4; settings: whole-cell voltage clamp, HEK293T
From the text: Initially, we assessed the basic properties of the hsTRPM4 mutants using whole-cell patch clamp electrophysiology.

[2] = In vivo pharmacokinetics after single i.p. or i.v. dose; settings: female, C57BL/6J, mouse
Protocol: Next, to assess in vivo availability of the Series 1–3 compounds, we evaluated drug metabolism and pharmacokinetics (DMPK). We measured compound concentrations in plasma, heart, and brain at several time points after intraperitoneal (i.p.) or intravenous (i.v.) single-dose injections.
Half-life and bioavailability were calculated by noncompartmental analysis using the R package PK[84] (v1.3-6).

mouse TRPM4 = molecular target: T1, mouse TRPM4 (Mus musculus, UniProt Q7TN37); assay: Inside-out patch clamp, mouse TRPM4; type: cell-based; settings: inside-out patch clamp configuration
T1 construct: Human TRPM4 (UniProtKB: Q8TD43-1) and mouse Trpm4 (UniProtKB: Q7TN37-1) were amplified via PCR; eGFP (C); expressed in transfected cells

human TRPM4 = human TRPM4 (Homo sapiens, UniProt Q8TD43); assay: Inside-out patch clamp, human TRPM4; type: cell-based; parameters: Human TRPM4 (UniProtKB: Q8TD43-1) and mouse Trpm4 (UniProtKB: Q7TN37-1) were amplified via PCR; expressed in transfected cells; settings: inside-out patch clamp configuration
Protocol: Patch clamp recordings were conducted using an EPC10 patch clamp amplifier and Patchmaster software (HEKA, Germany). An Ag/AgCl wire served as the reference electrode in all experiments. […] Liquid junction potential was compensated before achieving gigaseal formation. All experiments were conducted at room temperature. Whole-cell currents were recorded in transiently transfected HEK293 cells expressing either wildtype human TRPM4, TRPM4-L907A, or TRPM4-S924A. Recordings involved a 400 ms increasing voltage ramp from –100 mV to +100 mV, initiated from a holding potential of 0 mV. The interval between each sweep was 2 seconds, with data sampled at 5 kHz. […] To identify TRPM4 currents, extracellular Na^+ was replaced with equimolar NMDG^+. […] Similar to whole-cell recordings, a 400 ms increasing voltage ramp from –100 mV to +100 mV was applied from a holding potential of 0 mV. The interval between sweeps was 2 seconds, and data were sampled at 5 kHz. […] TRPM4 currents were activated by 500 μM CaCl2 and deactivated by 10 mM EGTA, both added to the intracellular solution. Ca^2+ activation curves were fitted using a likelihood maximization algorithm to estimate the parameters for the sigmoidal fitting curves y-maximum, slope and midpoint as part of the R package sicegar (V0.2.4).

CYP 2C9 = molecular target: T2, CYP 2C9 (Homo sapiens, UniProt P11712); assay: CYP inhibition assay 2C9; type: in vitro ADME
T2 construct: purchased BD Gentest
Protocol: (§1) The half-maximal inhibitory concentration (IC50) for cytochrome P450 (CYP) enzymes was determined using an in vitro enzyme inhibition assay. Recombinant CYP enzymes or human liver microsomes from BD Gentest, in 0.1 M phosphate buffer pH 7.4, containing native CYP enzymes were incubated with the test compound at various concentrations (1, 3, 10 and 30 μM) and containing 0.5% DMSO and 0.1% BSA final concentrations. 1 mM of NADPH cofactor was added and the reaction was started by a rapid increase of temperature until 37°C.

CYP 2C19 = molecular target: T3, CYP 2C19 (Homo sapiens, UniProt P33261); assay: CYP inhibition assay 2C19; type: in vitro ADME
T3 construct: purchased BD Gentest
Protocol: as §1

T1 sequence (Q7TN37 whole entry): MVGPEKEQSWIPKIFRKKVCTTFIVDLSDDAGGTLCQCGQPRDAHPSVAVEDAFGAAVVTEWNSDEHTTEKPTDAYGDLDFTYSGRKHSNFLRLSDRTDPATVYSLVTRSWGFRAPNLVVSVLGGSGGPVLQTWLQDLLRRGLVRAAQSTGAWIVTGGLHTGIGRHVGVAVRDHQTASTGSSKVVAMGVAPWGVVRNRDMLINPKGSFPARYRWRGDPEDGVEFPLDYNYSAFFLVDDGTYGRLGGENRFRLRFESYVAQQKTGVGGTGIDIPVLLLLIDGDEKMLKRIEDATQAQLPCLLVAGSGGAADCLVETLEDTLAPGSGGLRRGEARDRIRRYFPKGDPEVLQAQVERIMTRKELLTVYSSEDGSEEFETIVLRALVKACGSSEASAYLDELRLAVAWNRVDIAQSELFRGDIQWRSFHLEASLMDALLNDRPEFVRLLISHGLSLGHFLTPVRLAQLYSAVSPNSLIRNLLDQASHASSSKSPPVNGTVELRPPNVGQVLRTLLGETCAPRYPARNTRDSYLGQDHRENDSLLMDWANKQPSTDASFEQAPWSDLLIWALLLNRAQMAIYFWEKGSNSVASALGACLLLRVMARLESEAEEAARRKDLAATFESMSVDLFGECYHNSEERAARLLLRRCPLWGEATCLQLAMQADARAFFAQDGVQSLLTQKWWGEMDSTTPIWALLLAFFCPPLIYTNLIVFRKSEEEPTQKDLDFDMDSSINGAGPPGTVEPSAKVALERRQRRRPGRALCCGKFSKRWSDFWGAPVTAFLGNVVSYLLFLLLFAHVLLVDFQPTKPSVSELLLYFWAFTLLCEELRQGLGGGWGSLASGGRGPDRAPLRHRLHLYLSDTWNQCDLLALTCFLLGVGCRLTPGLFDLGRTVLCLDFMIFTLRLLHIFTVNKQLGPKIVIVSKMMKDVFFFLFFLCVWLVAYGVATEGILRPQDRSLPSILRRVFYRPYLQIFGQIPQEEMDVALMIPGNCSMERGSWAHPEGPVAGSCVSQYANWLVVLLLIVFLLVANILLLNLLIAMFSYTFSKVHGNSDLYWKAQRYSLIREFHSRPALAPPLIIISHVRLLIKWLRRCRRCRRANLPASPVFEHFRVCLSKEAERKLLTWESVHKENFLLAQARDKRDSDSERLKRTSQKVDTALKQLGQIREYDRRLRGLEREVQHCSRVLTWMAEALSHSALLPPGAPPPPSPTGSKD
Sequence of human TRPM4 (Q8TD43 whole entry): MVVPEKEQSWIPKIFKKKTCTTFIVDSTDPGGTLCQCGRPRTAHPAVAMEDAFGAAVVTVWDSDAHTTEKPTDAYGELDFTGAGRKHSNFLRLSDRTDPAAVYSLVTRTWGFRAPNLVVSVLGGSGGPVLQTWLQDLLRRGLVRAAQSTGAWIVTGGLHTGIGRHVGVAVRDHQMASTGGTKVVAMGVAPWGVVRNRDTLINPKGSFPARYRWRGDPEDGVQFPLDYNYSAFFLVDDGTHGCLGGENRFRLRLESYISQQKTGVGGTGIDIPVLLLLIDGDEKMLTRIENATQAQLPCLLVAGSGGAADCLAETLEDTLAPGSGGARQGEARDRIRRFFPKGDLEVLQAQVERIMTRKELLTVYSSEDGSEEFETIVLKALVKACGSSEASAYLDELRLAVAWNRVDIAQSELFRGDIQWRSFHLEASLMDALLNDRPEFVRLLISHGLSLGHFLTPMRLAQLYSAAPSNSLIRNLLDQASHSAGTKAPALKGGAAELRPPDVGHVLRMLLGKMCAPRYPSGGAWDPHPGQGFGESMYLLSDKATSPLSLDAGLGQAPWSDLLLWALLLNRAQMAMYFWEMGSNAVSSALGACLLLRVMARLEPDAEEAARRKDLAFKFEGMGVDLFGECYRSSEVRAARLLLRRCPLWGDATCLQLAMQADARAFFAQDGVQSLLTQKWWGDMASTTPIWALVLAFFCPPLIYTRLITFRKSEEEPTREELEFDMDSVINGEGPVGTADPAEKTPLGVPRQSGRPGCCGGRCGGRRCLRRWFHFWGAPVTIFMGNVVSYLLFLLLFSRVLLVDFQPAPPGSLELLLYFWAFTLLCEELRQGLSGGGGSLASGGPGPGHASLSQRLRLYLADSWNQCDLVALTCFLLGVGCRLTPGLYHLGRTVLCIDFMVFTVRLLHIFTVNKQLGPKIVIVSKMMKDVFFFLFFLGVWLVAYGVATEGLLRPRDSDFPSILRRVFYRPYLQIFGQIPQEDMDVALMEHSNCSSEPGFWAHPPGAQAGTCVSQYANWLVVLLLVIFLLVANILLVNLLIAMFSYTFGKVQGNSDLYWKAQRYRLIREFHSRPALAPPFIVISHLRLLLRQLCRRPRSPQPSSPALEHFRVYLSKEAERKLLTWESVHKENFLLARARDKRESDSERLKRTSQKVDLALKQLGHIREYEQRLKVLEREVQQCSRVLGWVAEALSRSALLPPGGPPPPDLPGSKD
T3 sequence (P33261 whole entry): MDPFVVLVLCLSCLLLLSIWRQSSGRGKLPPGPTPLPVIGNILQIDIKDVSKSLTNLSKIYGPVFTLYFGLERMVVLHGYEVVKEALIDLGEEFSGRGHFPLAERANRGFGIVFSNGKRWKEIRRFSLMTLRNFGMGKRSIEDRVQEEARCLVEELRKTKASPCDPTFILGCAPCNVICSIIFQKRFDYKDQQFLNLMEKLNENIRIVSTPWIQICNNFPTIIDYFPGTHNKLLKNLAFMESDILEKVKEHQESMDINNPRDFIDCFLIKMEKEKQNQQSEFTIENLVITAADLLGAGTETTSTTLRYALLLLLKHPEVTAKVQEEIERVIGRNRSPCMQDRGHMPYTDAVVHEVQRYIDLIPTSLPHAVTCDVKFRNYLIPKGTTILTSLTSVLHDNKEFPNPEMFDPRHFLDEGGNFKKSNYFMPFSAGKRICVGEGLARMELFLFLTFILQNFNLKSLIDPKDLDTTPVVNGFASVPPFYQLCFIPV
T2 sequence (P11712 whole entry): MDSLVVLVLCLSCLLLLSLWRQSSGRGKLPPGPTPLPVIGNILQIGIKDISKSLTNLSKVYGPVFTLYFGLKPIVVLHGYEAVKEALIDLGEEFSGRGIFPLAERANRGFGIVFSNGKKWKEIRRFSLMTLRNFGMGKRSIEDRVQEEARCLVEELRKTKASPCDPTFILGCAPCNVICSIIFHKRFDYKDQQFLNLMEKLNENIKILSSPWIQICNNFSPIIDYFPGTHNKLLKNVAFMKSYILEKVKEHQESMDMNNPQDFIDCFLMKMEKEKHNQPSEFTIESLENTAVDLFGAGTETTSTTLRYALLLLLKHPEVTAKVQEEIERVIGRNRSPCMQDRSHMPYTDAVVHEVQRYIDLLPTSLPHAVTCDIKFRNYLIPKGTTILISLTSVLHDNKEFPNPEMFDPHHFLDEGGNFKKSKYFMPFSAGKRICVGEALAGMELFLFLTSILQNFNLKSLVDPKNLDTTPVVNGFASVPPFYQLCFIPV

Row | IC50 (CYP 2C9) [µM] | IC50 (CYP 2C19) [µM] | SMILES | Current inhibition of hsTRPM4 L907A and S924A mutants versus wildtype [1] | half-life ([2]; brain, ip, read-out: Brain half-life (converted)) [h] | half-life ([2]; brain, iv, read-out: Brain half-life (converted)) [h] | half-life ([2]; heart, ip, read-out: Heart half-life (converted)) [h] | half-life ([2]; heart, iv, read-out: Heart half-life (converted)) [h] | half-life ([2]; plasma, ip, read-out: Plasma half-life (converted)) [h] | half-life ([2]; plasma, iv, read-out: Plasma half-life (converted)) [h] | Activity on mouse TRPM4 (mouse TRPM4) | Activity on mouse TRPM4 (mouse TRPM4; listed as 343) | Activity on human TRPM4 (human TRPM4)
1 |  |  | Fc1cccc(-c2ccccc2NCc2nc3ccccc3o2)c1 [CMP343] | significantly reduced current inhibition in at least one hsTRPM4 mutant variant | 2.1 | 0.2 | 15.3 | 2.1 | 4.3 | 0.3 | reduced activity on mouse TRPM4 compared to human TRPM4 | significantly less effective on mouse TRPM4 | almost completely blocked
2 | 14.9 | 6.2 | c1csc(-c2ccccc2NCc2nc3ccccc3o2)c1 [CMP355] |  |  |  |  |  |  |  |  |  | 
